Source: patent US12227501B2, “3-amino-2-[2-(acylamino)pyridin-4-yl]-1,5,6,7-tetrahydro-4h-pyrrolo[3,2-c]pyridin-4-one as CSNK1 inhibitors” (Bayer Aktiengesellschaft, priority 2019, dated 2025)
Where “and” joins values, the source holds several entries; their conditions need not be identical. Equal values may be shown once. Read-outs that look alike come from different tables or passages of the source.

Experiments:
Format in all cases: biochemical
human CSNK1D = human CSNK1D (Homo sapiens (Human), UniProt P48730); experiment: CSNK1D Assay (ADP-Glo, 1 μM ATP); settings: read-out: CSNK1D IC50 [mol/l] (median)
human CSNK1D, sequence (P48730 whole entry): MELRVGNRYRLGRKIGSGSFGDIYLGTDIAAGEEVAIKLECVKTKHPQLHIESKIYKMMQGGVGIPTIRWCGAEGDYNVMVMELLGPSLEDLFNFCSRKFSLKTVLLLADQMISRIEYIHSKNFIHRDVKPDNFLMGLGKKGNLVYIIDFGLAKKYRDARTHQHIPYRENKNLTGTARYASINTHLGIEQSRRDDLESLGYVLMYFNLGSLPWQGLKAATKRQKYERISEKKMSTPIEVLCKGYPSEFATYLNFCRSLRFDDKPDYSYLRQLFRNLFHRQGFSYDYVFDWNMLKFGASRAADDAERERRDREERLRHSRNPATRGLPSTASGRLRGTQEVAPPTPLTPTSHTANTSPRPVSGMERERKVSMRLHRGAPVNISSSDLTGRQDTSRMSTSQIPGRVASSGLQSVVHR
Procedure, shortened: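 GST-tagged full-length human CSNK1D from baculovirus-infected insect cells, typically ~0.5 ng/μL, with biotinylated peptide substrate and 1 μM ATP in HEPES pH 7.5 buffer. Compound is preincubated with enzyme 15 min at 22 °C. ADP formed is quantified by ADP-Glo luminescence.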

[1] = molecular target: wild-type Epidermal Growth Factor Receptor (EGFR) (Homo sapiens (Human), UniProt P00533); experiment: WT-EGFR Kinase Assay (TR-FRET, 2 mM ATP)
wild-type Epidermal Growth Factor Receptor (EGFR), sequence (P00533 669-1210): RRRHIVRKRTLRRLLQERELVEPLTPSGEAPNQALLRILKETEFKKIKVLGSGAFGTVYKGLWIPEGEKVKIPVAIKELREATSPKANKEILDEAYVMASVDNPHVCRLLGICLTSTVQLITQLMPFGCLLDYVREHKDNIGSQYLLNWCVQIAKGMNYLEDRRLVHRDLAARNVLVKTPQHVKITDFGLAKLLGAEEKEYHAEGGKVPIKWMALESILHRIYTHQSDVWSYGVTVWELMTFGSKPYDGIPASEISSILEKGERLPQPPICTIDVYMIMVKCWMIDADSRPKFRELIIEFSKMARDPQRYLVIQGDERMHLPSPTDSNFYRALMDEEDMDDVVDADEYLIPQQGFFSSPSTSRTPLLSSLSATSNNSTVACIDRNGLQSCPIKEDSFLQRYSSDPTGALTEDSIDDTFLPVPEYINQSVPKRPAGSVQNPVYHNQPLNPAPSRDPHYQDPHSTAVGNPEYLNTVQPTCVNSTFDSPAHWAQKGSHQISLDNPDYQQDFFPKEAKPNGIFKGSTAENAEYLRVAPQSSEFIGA

human CSNK1A1 [2] = molecular target: T1, human CSNK1A1 (Homo sapiens (Human), UniProt P48729); experiment: CSNK1A1 Assay 2 (ADP-Glo, 1 μM ATP); settings: substrate biotin-Ahx-KRRRAL-pS-VASLPGL, read-out: CSNK1A1 Assay 2 IC50 [mol/l] (median)
T1 sequence (P48729 whole entry, the tested form may be a part): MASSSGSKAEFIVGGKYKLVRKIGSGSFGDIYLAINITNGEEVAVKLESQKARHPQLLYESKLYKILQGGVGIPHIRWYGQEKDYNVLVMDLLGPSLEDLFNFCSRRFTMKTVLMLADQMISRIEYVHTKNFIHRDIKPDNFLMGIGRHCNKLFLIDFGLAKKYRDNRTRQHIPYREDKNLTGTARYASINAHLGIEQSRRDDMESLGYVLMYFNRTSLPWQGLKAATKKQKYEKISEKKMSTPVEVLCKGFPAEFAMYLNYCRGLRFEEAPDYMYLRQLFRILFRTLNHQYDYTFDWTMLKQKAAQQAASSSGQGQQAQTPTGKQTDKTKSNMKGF
Procedure, shortened: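 Full-length human CSNK1A1 as an N-terminal GST fusion (baculovirus/insect cells) with biotinylated peptide substrate biotin-Ahx-KRRRAL-pS-VASLPGL and 1 μM ATP, in HEPES pH 7.5 buffer. Compounds were pre-incubated with enzyme (~0.0375 ng/μL) for 15 min at 22 °C. Generated ADP was read by ADP-Glo luminescence as the activity measure.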

human CSNK1A1 [3] = molecular target: T1, human CSNK1A1; experiment: CSNK1A1 High ATP Assay (ADP-Glo, 1 mM ATP); settings: read-out: CSNK1A1 high ATP assay IC50 [mol/l] (median)
Procedure, shortened: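 GST-tagged full-length human CSNK1A1 from baculovirus-infected insect cells (typically about 0.4 ng/μL), pre-incubated with compound 15 min at 22 °C. Reaction with biotinylated peptide biotin-Ahx-KRRRAL-pS-VASLPGL at 1 mM ATP. ADP formed read by ADP-Glo luminescence.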

[4] = read-out: EGFR Wildtyp- 2 mM ATP IC50 [mol/l] (median)
[5] = EGFR Wildtyp- 2 mM ATP IC50 [mol/l] (median)

| Structure (SMILES) | IC50 (human CSNK1D) | IC50 [1, 4] | IC50 (human CSNK1A1 [2]) | IC50 (human CSNK1A1 [3]) | IC50 [1, 5] |
| --- | --- | --- | --- | --- | --- |
| CC1(C)Cc2[nH]c(-c3ccnc(NC(=O)C(CN)c4ccc(F)cc4)c3)c(Nc3ccccc3)c2C(=O)N1 (single isomer, unassigned; enantiomer 2) [Example 141, 3-amino-N-[4-(3-anilino-6,6-dimethyl-4-oxo-4,5,6,7-tetrahydro-1H-pyrrolo[3,2-c]pyridin-2-yl)pyridin-2-yl]-2-(4-fluorophenyl)propanamide (Enantiomer 2)] | 127 nM | > 20 µM | 57.8 nM | 599 nM | – |
| Cc1ccccc1Nc1c(-c2ccnc(NC(=O)C(CC(F)F)c3ccc(F)cc3)c2)[nH]c2c1C(=O)NC1(CCC1)C2 (single isomer, unassigned; enantiomer 2) [Example 145, (+)-4,4-difluoro-2-(4-fluorophenyl)-N-{4-[3′-(2-methylanilino)-4′-oxo-1′,4′,5′,7′-tetrahydrospiro[cyclobutane-1,6′-pyrrolo[3,2-c]pyridin]-2′-yl]pyridin-2-yl}butanamide-(Enantiomer 2)] | 8.21 nM | > 20 µM | 10.7 nM | 14.8 nM | – |
| O=C1NC2(CC2)Cc2[nH]c(-c3ccnc(NC(=O)C(CC(F)F)c4ccc(F)cc4)c3)c(Nc3ccccc3)c21 (single isomer, unassigned; enantiomer 2) [Example 149, N-[4-(3′-anilino-4′-oxo-1′,4′,5′,7′-tetrahydrospiro[cyclopropane-1,6′-pyrrolo[3,2-c]pyridin]-2′-yl)pyridin-2-yl]-4,4-difluoro-2-(4-fluorophenyl)butanamide (Enantiomer 2)] | 39.4 nM | – | 40.4 nM | 473 nM | 16.7 µM |
| CC(C(=O)Nc1cc(-c2[nH]c3c(c2Nc2ccccc2)C(=O)N(C)C2(CCC2)C3)ccn1)c1ccc(F)cc1 (single isomer, unassigned; enantiomer 2) [Example 159, (+)-N-[4-(3′-anilino-5′-methyl-4′-oxo-1′,4′,5′,7′-tetrahydrospiro[cyclobutane-1,6′-pyrrolo[3,2-c]pyridin]-2′-yl)pyridin-2-yl]-2-(4-fluorophenyl)propanamide (Enantiomer 2)] | 90.7 nM | > 20 µM | 90.3 nM | 217 nM | – |
| CN1C(=O)c2c([nH]c(-c3ccnc(NC(=O)C(CC(F)F)c4ccc(F)cc4)c3)c2Nc2ccccc2)CC12CCC2 (single isomer, unassigned; enantiomer 2) [Example 162, (+)-N-[4-(3′-anilino-5′-methyl-4′-oxo-1′,4′,5′,7′-tetrahydrospiro[cyclobutane-1,6′-pyrrolo[3,2-c]pyridin]-2′-yl)pyridin-2-yl]-4,4-difluoro-2-(4-fluorophenyl)butanamide (Enantiomer 2)] | 52.9 nM | > 20 µM | 60.2 nM | 61.4 nM | – |
| O=C(Cc1ccc(F)cc1)Nc1cc(-c2[nH]c3c(c2Nc2ccccc2)C(=O)N(C2CC2)CC3)ccn1 [Example 7, N-[4-(3-anilino-5-cyclopropyl-4-oxo-4,5,6,7-tetrahydro-1H-pyrrolo[3,2-c]pyridin-2-yl)pyridin-2-yl]-2-(4-fluorophenyl)acetamide] | 8.48 nM | 2.74 µM | 2.52 nM | 107 nM | – |
| CC(C(=O)Nc1cc(-c2[nH]c3c(c2Nc2ccccc2)C(=O)N(C2CC2)CC3)ccn1)c1ccc(F)cc1 (stereo not shown) [Example 8, N-[4-(3-anilino-5-cyclopropyl-4-oxo-4,5,6,7-tetrahydro-1H-pyrrolo[3,2-c]pyridin-2-yl)pyridin-2-yl]-2-(4-fluorophenyl)propanamide] | 37.9 nM | > 20 µM | 15.4 nM | 1930 nM | – |
| O=C(Cc1ccc(F)cc1)Nc1cc(-c2[nH]c3c(c2Nc2ccccc2Cl)C(=O)NCC3)ccn1 [Example 13, N-{4-[3-(2-chloroanilino)-4-oxo-4,5,6,7-tetrahydro-1H-pyrrolo[3,2-c]pyridin-2-yl]pyridin-2-yl}-2-(4-fluorophenyl)acetamide] | 7.06 nM | 1.05 µM | 1.9 nM | 37 nM | – |
| CC(C(=O)Nc1cc(-c2[nH]c3c(c2Nc2ccccc2Cl)C(=O)NCC3)ccn1)c1ccc(F)cc1 (stereo not shown) [Example 14, N-{4-[3-(2-chloroanilino)-4-oxo-4,5,6,7-tetrahydro-1H-pyrrolo[3,2-c]pyridin-2-yl]pyridin-2-yl}-2-(4-fluorophenyl)propanamide] | 14 nM | > 20 µM | 4.96 nM | 73.9 nM | – |
| CN1CCc2[nH]c(-c3ccnc(NC(=O)C(CO)c4ccc(F)cc4)c3)c(Nc3ccccc3)c2C1=O (stereo not shown) [Example 17, N-[4-(3-anilino-5-methyl-4-oxo-4,5,6,7-tetrahydro-1H-pyrrolo[3,2-c]pyridin-2-yl)pyridin-2-yl]-2-(4-fluorophenyl)-3-hydroxypropanamide] | 39.3 nM | > 20 µM | 10.9 nM | 66.5 nM | 14.5 µM and 14.3 µM |
| O=C(Cc1ccc(F)cc1)Nc1cc(-c2[nH]c3c(c2Nc2ccccc2)C(=O)N(CC2CC2)CC3)ccn1 [Example 20, N-{4-[3-anilino-5-(cyclopropylmethyl)-4-oxo-4,5,6,7-tetrahydro-1H-pyrrolo[3,2-c]pyridin-2-yl]pyridin-2-yl}-2-(4-fluorophenyl)acetamide] | 24.2 nM | > 20 µM | 9.72 nM | 1660 nM | 18.1 µM |
| CCN1CCc2[nH]c(-c3ccnc(NC(=O)C(C)c4ccc(F)cc4)c3)c(Nc3ccccc3)c2C1=O (stereo not shown) [Example 21, N-[4-(3-anilino-5-ethyl-4-oxo-4,5,6,7-tetrahydro-1H-pyrrolo[3,2-c]pyridin-2-yl)pyridin-2-yl]-2-(4-fluorophenyl)propanamide] | 21.5 nM | > 20 µM | 7.67 nM | 344 nM | – |
| CC(C)(O)CN1CCc2[nH]c(-c3ccnc(NC(=O)Cc4ccc(F)cc4)c3)c(Nc3ccccc3)c2C1=O [Example 23, N-{4-[3-anilino-5-(2-hydroxy-2-methylpropyl)-4-oxo-4,5,6,7-tetrahydro-1H-pyrrolo[3,2-c]pyridin-2-yl]pyridin-2-yl}-2-(4-fluorophenyl)acetamide] | 36.8 nM | 7.28 µM | 26.7 nM | 2620 nM | – |
| CC(C(=O)Nc1cc(-c2[nH]c3c(c2Nc2ccccc2)C(=O)N(CC(C)(C)O)CC3)ccn1)c1ccc(F)cc1 (stereo not shown) [Example 24, N-{4-[3-anilino-5-(2-hydroxy-2-methylpropyl)-4-oxo-4,5,6,7-tetrahydro-1H-pyrrolo[3,2-c]pyridin-2-yl]pyridin-2-yl}-2-(4-fluorophenyl)propanamide] | 64 nM | > 20 µM | 39.2 nM | > 5710 nM and 4240 nM | – |
| CC(C(=O)Nc1cc(-c2[nH]c3c(c2Nc2ccccc2)C(=O)NC(C)(C)C3)ccn1)c1ccc(F)cc1 (stereo not shown) [Example 27, N-[4-(3-anilino-6,6-dimethyl-4-oxo-4,5,6,7-tetrahydro-1H-pyrrolo[3,2-c]pyridin-2-yl)pyridin-2-yl]-2-(4-fluorophenyl)propanamide] | 36.2 nM | 18 µM | 7.7 nM | 157 nM | > 20 µM |
| CCN1CCc2[nH]c(-c3ccnc(NC(=O)Cc4ccc(F)cc4)c3)c(Nc3ccccc3)c2C1=O [Example 28, N-[4-(3-anilino-5-ethyl-4-oxo-4,5,6,7-tetrahydro-1H-pyrrolo[3,2-c]pyridin-2-yl)pyridin-2-yl]-2-(4-fluorophenyl)acetamide] | 71.2 nM | > 20 µM | 11.4 nM | 1980 nM | – |
